From ChEMBL document CHEMBL1201862, “PubChem BioAssay data set” (2004)
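Five compound concentrations were applied to cells in 96-well plates for 48 hours; endpoints were derived by simple linear interpolation of the resulting dose-response curve. GI50 = concentration required for 50% inhibition of growth.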 Active and inactive are the calls of the source. Cut-off read from the data, not from the text of the source: active = GI50 up to about 1.1 µM and inactive = higher.

Columns and labels:
Test in all cases: inhibition of tumour cell growth, NCI panel, 48 h
A549 = test system: A549
COLO 205 = test system: COLO 205
DU-145 = test system: DU-145
HOP-62 = test system: HOP-62
HT-29 = test system: HT-29
Hs-578T = test system: Hs-578T
KM12 = test system: KM12
LOX IMVI = test system: LOX IMVI
M14 = test system: M14
MCF7 = test system: MCF7
NCI-H522 = test system: NCI-H522
OVCAR-4 = test system: OVCAR-4
OVCAR-5 = test system: OVCAR-5
OVCAR-8 = test system: OVCAR-8
PC-3 = test system: PC-3
RPMI-8226 = test system: RPMI-8226
SF-268 = test system: SF-268
SK-OV-3 = test system: SK-OV-3
HCC 2998 = test system: HCC 2998
SR = test system: SR

Measured: GI50

O=C(O)CNC(=O)c1ccc([As](=O)(O)O)cc1
inactive: A549 > 100 µM | COLO 205 > 100 µM | DU-145 > 100 µM | HOP-62 > 100 µM | HT-29 > 100 µM | Hs-578T > 100 µM | KM12 > 100 µM | LOX IMVI > 100 µM | M14 > 100 µM | MCF7 > 100 µM | NCI-H522 > 100 µM | OVCAR-4 > 100 µM | OVCAR-5 > 100 µM | OVCAR-8 > 100 µM | PC-3 > 100 µM | RPMI-8226 > 100 µM | SF-268 > 100 µM | SK-OV-3 > 100 µM

COc1ccc(/C=C/c2nccc3ccccc23)cc1OC
inactive: A549 > 10 µM | COLO 205 > 10 µM | DU-145 > 10 µM | HCC 2998 > 10 µM | HOP-62 > 10 µM | HT-29 4.05 µM | Hs-578T > 10 µM | KM12 8.13 µM | LOX IMVI 4.57 µM | M14 > 10 µM | MCF7 2.43 µM | NCI-H522 > 10 µM | OVCAR-4 > 10 µM | OVCAR-5 > 10 µM | OVCAR-8 > 10 µM | PC-3 > 10 µM | RPMI-8226 5.98 µM | SF-268 > 10 µM | SK-OV-3 > 10 µM

O=P1(c2ccccc2)C(c2ccccc2)CCC1c1ccccc1 (stereo not drawn)
inactive: A549 65.8 µM | COLO 205 66.7 µM | DU-145 > 100 µM | HCC 2998 > 100 µM | HOP-62 > 100 µM | Hs-578T > 100 µM | KM12 30 µM | LOX IMVI 41.1 µM | M14 68.5 µM | MCF7 > 100 µM | NCI-H522 26.4 µM | OVCAR-8 91.4 µM | PC-3 33.6 µM | RPMI-8226 22.1 µM | SF-268 > 100 µM | SK-OV-3 40.9 µM

CC1OC23CCCCC2C(C#N)(C#N)C1(C#N)C(=N)O3 (stereo not drawn)
inactive: A549 96.2 µM | COLO 205 14.7 µM | DU-145 24.3 µM | HCC 2998 25.5 µM | HT-29 27.1 µM | Hs-578T 21.8 µM | KM12 24.3 µM | LOX IMVI 17.6 µM | M14 20.1 µM | MCF7 20.7 µM | OVCAR-5 22 µM | OVCAR-8 20.7 µM | PC-3 24.4 µM | SF-268 24.7 µM | SK-OV-3 > 100 µM

CCOC(=O)Cc1csc(N/N=C2\C(=O)Nc3ccccc32)n1
inactive: A549 41.6 µM | COLO 205 28.6 µM | DU-145 76.7 µM | HCC 2998 59 µM | HOP-62 36.5 µM | HT-29 42.6 µM | Hs-578T 56.1 µM | KM12 31.2 µM | LOX IMVI 48.8 µM | M14 41.7 µM | MCF7 33.1 µM | NCI-H522 19 µM | OVCAR-4 56.9 µM | OVCAR-5 > 100 µM | OVCAR-8 40.6 µM | PC-3 30.1 µM | RPMI-8226 36.5 µM | SF-268 66.8 µM | SK-OV-3 49.4 µM

CCOC1OC(CO)C(O)CC1n1ccc(=O)[nH]c1=O (stereo not drawn)
inactive: A549 > 100 µM | COLO 205 > 100 µM | DU-145 > 100 µM | HCC 2998 > 100 µM | HT-29 > 100 µM | Hs-578T > 100 µM | KM12 > 100 µM | LOX IMVI > 100 µM | M14 > 100 µM | MCF7 > 100 µM | NCI-H522 30.3 µM | OVCAR-4 > 100 µM | OVCAR-5 > 100 µM | OVCAR-8 > 100 µM | PC-3 > 100 µM | RPMI-8226 > 100 µM | SF-268 > 100 µM

O=C(C1OC1c1ccc(Br)cc1O)C12CC3CC(CC(C3)C1)C2 (stereo not drawn)
inactive: A549 37.8 µM | DU-145 42 µM | HCC 2998 21.4 µM | HOP-62 26.2 µM | HT-29 28.8 µM | Hs-578T 15.7 µM | KM12 19.5 µM | LOX IMVI 14.6 µM | M14 18.1 µM | MCF7 22.3 µM | NCI-H522 18.8 µM | OVCAR-4 26.2 µM | OVCAR-5 41.5 µM | OVCAR-8 20.5 µM | PC-3 23.6 µM | RPMI-8226 17.8 µM | SF-268 31.7 µM

Brc1ccc(C2CC3(c4ccccc4)ON=C(c4ccccc4)N3c3ccccc3S2)cc1 (stereo not drawn)
inactive: A549 > 100 µM | COLO 205 > 100 µM | DU-145 > 100 µM | HCC 2998 > 100 µM | HOP-62 > 100 µM | HT-29 9.16 µM | Hs-578T > 100 µM | KM12 > 100 µM | LOX IMVI > 100 µM | M14 > 100 µM | MCF7 > 100 µM | NCI-H522 > 100 µM | OVCAR-4 > 100 µM | OVCAR-5 > 100 µM | OVCAR-8 > 100 µM | PC-3 > 100 µM | SF-268 > 100 µM | SK-OV-3 > 100 µM | SR 28.1 µM

C=CCCCCOC1C=CC(O)C(CO)O1 (stereo not drawn)
inactive: A549 > 100 µM | COLO 205 > 100 µM | DU-145 > 100 µM | HCC 2998 > 100 µM | HOP-62 > 100 µM | HT-29 > 100 µM | Hs-578T 30.1 µM | KM12 > 100 µM | LOX IMVI > 100 µM | M14 > 100 µM | MCF7 > 100 µM | NCI-H522 > 100 µM | OVCAR-4 > 100 µM | OVCAR-5 > 100 µM | OVCAR-8 > 100 µM | PC-3 > 100 µM | RPMI-8226 > 100 µM | SF-268 > 100 µM | SK-OV-3 > 100 µM

CC/C(Cl)=N\OC(=O)Nc1ccc(F)cc1F
inactive: A549 19.9 µM | COLO 205 1.91 µM | DU-145 17.6 µM | HCC 2998 19.3 µM | HOP-62 21 µM | HT-29 21.3 µM | Hs-578T 32.2 µM | KM12 19.9 µM | LOX IMVI 2.5 µM | M14 7.6 µM | MCF7 7.78 µM | NCI-H522 1.54 µM | OVCAR-4 17.9 µM | OVCAR-5 17.9 µM | OVCAR-8 19.8 µM | PC-3 17.7 µM | RPMI-8226 1.49 µM | SF-268 24.1 µM | SK-OV-3 19.3 µM

CC#C[C@]1(O)CCC2[C@@H]3CCC4=CC(=O)CCC4=C3[C@@H](c3ccc(N(C)C)cc3)C[C@@]21C (stereo partly drawn)
inactive: A549 10.2 µM | COLO 205 11.5 µM | DU-145 22.1 µM | HOP-62 20 µM | HT-29 12.9 µM | Hs-578T 13 µM | KM12 15.7 µM | LOX IMVI 16 µM | M14 13.8 µM | MCF7 5.27 µM | OVCAR-4 6.37 µM | OVCAR-5 22.7 µM | OVCAR-8 26.5 µM | PC-3 21.7 µM | RPMI-8226 2.02 µM | SF-268 6.85 µM | SK-OV-3 18.3 µM | SR 14.1 µM

CC(C)(O)C1OCC(C2CCC3(C)C4=CCC5C(C)(C)C(O)CCC5(C)C4CCC23C)CC1O (stereo not drawn)
inactive: A549 14.1 µM | COLO 205 15 µM | DU-145 17.3 µM | HCC 2998 16.6 µM | HT-29 13.1 µM | Hs-578T 13.8 µM | KM12 14 µM | LOX IMVI 17.9 µM | M14 27.7 µM | MCF7 11.6 µM | NCI-H522 11.5 µM | OVCAR-4 11.8 µM | OVCAR-5 19.5 µM | OVCAR-8 14.4 µM | PC-3 10.5 µM | RPMI-8226 7.94 µM | SF-268 16.1 µM | SK-OV-3 15.8 µM

[N-]=[N+]=NC1=NNC2(C(=O)N1)c1ccccc1-c1ccccc12
inactive: A549 > 100 µM | COLO 205 > 100 µM | DU-145 > 100 µM | HCC 2998 > 100 µM | HOP-62 > 100 µM | HT-29 > 100 µM | Hs-578T 27.6 µM | LOX IMVI > 100 µM | M14 > 100 µM | MCF7 72.1 µM | NCI-H522 > 100 µM | OVCAR-4 > 100 µM | OVCAR-5 > 100 µM | OVCAR-8 > 100 µM | PC-3 > 100 µM | SF-268 > 100 µM | SK-OV-3 > 100 µM

CC(C)=C[C@@H]1C[C@H](n2cc(C)c(=O)[nH]c2=O)ON1CCO
inactive: A549 > 100 µM | COLO 205 > 100 µM | DU-145 > 100 µM | HOP-62 > 100 µM | HT-29 > 100 µM | Hs-578T > 100 µM | KM12 > 100 µM | LOX IMVI > 100 µM | M14 > 100 µM | MCF7 > 100 µM | NCI-H522 > 100 µM | OVCAR-4 > 100 µM | OVCAR-5 > 100 µM | OVCAR-8 > 100 µM | PC-3 > 100 µM | RPMI-8226 > 100 µM | SF-268 > 100 µM | SK-OV-3 > 100 µM | SR > 100 µM

NC(=O)c1nnn(-c2ccccc2)c1O
inactive: A549 > 100 µM | COLO 205 > 100 µM | DU-145 > 100 µM | HCC 2998 > 100 µM | HOP-62 > 100 µM | HT-29 > 100 µM | Hs-578T > 100 µM | KM12 > 100 µM | LOX IMVI > 100 µM | M14 > 100 µM | MCF7 > 100 µM | NCI-H522 > 100 µM | OVCAR-5 > 100 µM | OVCAR-8 > 100 µM | PC-3 > 100 µM | RPMI-8226 > 100 µM | SF-268 > 100 µM | SK-OV-3 > 100 µM
